Experimental findings from patent publication US10077288B2, “Hydroxystatin derivatives for the treatment of arthrosis” (Merck Patent GmbH, priority 2012, dated 2018) are described below.

The target of test [1] is T1, cathepsin D isolated from the human liver (Homo sapiens, UniProt P07339).
T1 construct: cathepsin D isolated from the human liver (Sigma-Aldrich); purchased Sigma-Aldrich; host or cells: human liver (tissue-derived, not recombinant)
Nature of the test: In-vitro fluorescence assay for identification of cathepsin D inhibitors. The class given is biochemical. The settings on record: human liver cathepsin D 1.4 nM, pH 5.5; read-out: CatD assay IC50-(M). The procedure:
EXAMPLE 4: IN-VITRO FLUORESCENCE ASSAY FOR IDENTIFICATION OF CATHEPSIN D INHIBITORS
In order to identify modulators of cathepsin D activity, a continuous enzymatic test was carried out with a synthetic peptide which carries a fluorescent group (MCA=(7-methoxycoumarin-4-yl)acetyl) which is quenched by energy transfer from a Dpn (2,4 dinitrophenyl) group on the same molecule, in Greiner 384-well nb microtitre plates. Cleavage of the peptidic substrate by cathepsin D causes an increase in the fluorescence intensity. In order to determine the efficacy of substances, the time-dependent increase in the fluorescence intensity in the presence of the substance was compared with the time-dependent increase in fluorescence in the absence of substances. The reference substance used was pepstatin A (Sigma-Aldrich). The substrate used was MCA-GKPILFFRLK(Dnp)d-R—NH2 (Enzo Life Sciences, Lörrach). The enzyme employed was cathepsin D isolated from the human liver (Sigma-Aldrich) in a final concentration of 1.4 nM. The test was carried out in 100 mM sodium acetate buffer, 1.25% (v/v) of DMSO, 0.25% (w/v) of Chaps, pH 5.5. 2 μl of each substance solution with serially diluted substance concentration were added to in each case 4 μl of cathepsin D solution and incubated at room temperature for 10 min. The reaction was started by addition of 2 μl of substrate solution (final concentration 5 μM). After carrying out a starting-point fluorescence measurement (excitation wavelength 340 nm/emission wavelength 450 nm) using an Envision multilabel reader (Perkin Elmer), the reaction was incubated at room temperature for 60 min. The amount of peptide fragment cleaved off during the reaction time was subsequently measured by determination of the increase in the fluorescence intensity at 450 nm (excitation wavelength 340 nm).

The next test addresses T2, recombinant human renin (Homo sapiens, UniProt P00797).
T2 construct: purchased Proteos, Kalamazoo, Mich
T2 sequence (P00797 67-406): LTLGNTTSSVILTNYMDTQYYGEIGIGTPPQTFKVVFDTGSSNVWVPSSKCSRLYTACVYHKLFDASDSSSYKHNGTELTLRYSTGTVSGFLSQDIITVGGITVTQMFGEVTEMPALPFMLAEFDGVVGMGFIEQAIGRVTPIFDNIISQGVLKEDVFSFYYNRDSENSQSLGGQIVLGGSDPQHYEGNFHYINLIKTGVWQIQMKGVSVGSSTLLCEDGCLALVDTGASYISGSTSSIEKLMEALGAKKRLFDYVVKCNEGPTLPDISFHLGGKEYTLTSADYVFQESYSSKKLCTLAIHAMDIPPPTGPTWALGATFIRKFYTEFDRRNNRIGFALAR
Nature of the test: In-vitro fluorescence assay for identification of renin-inhibitory activity. It is filed as biochemical. The settings on record: recombinant human renin 10 nM, FRET substrate 5 μM, pH 7.2; read-out: Renin selectivity IC50. The procedure:
EXAMPLE 8: IN-VITRO FLUORESCENCE ASSAY FOR IDENTIFICATION OF RENIN-INHIBITORY ACTIVITY
In order to identify modulators of renin activity, a continuous enzymatic test was carried out with a synthetic peptide which carries a fluorescent group Edans (=(5-(aminoethyl)aminonaphthalenesulfonate) which is quenched by energy transfer from a Dabcyl (4′-dimethylaminoazobenzene-4-carboxylate) group on the same molecule, in Greiner 384-well microtitre plates. Cleavage of the peptidic substrate by renin causes an increase in the fluorescence intensity. In order to determine the efficacy of substances, the time-dependent increase in the fluorescence intensity in the presence of the substance was compared with the time-dependent increase in fluorescence in the absence of substances. The reference substance used was renin inhibitor 2 (Z-Arg-Arg-Pro-Phe-His-Sta-Ile-His N-Boc-Lys methyl ester Z) (Sigma-Aldrich). The substrate used was renin FRET substrate I (DABCYL-g-Abu-Ile-His-Pro-Phe-His-Leu-Val-Ile-His-Thr-EDANS) (Anaspec, Fremont Calif.). The enzyme employed was recombinant human renin (Pro-teos, Kalamazoo, Mich.) in a final concentration of 10 nM. The test was carried out in 50 mM Mops buffer, 1.5% (v/v) of DMSO, 0.1% (w/v) of Igepal®, pH 7.2, 0.5% (w/v) of BSA. 2 μl of each substance solution with serially diluted substance concentration were added to in each case 4 μl of renin solution and incubated at room temperature for 15 min. The reaction was started by addition of 4 μl of substrate solution (final concentration 5 μM). After carrying out a starting-point fluorescence measurement (excitation wavelength 340 nm/emission wavelength 495 nm) using an Envision multilabel reader (Perkin Elmer), the reaction was incubated at 37° C. for 60 min. The amount of peptide fragment cleaved off during the reaction time was subsequently measured by determination of the increase in the fluorescence intensity at 495 nm (excitation wavelength 340 nm).
Result: all compounds measured have an IC50 of the renin selectivity of >30 μM (see Table 2 in Example 1).

*1 amine or outer side, *2 acyl side, *3 side chain or, on linkers, in order; H or OH if unused. Where a SMILES comes first, the peptide text is derived from it. [ ]: non-standard residue; d: D form. The star is where a group is joined. Ahppa(3S,4S) = O=C(C[C@H](O)[C@H](Cc1ccccc1)N[*:1])[*:2]; PhAc = O=C(Cc1ccccc1)*; OBn = c1ccc(CO*)cc1

T1 sequence (P07339 65-161 limits assumed): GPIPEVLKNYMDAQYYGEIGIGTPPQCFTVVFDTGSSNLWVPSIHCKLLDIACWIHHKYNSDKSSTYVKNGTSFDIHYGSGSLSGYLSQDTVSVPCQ
T1 sequence (P07339 169-412 limits assumed): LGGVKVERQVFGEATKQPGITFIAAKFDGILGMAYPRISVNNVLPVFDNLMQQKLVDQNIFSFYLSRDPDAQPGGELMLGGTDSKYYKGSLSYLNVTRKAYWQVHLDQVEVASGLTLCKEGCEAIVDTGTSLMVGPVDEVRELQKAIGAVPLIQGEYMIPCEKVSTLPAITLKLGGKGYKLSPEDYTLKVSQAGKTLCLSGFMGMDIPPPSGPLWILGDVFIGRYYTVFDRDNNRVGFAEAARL

Broadly, the IC50 is the concentration needed to halve the response being measured. `CC[C@H](C)[C@H](NC(=O)C[C@H](O)[C@H](Cc1ccccc1)NC(=O)[C@@H](NC(=O)C(C)(C)Oc1ccc2ccccc2c1)C(C)C)C(=O)N[C@H](C(=O)OCc1ccccc1)C(C)C` [Compound 3, benzly (S)-2-[(2S,3S)-2-((3S,4S)-3-hydroxy-4-{(S)-3-methyl-2-[2-methyl-2-(naphthalen-2-yloxy)propionylamino]butyrylamino}-5-phenylpentanoylamino)-3-methylpentanoylamino]-3-methylbutyrate]: the figures for the IC50 (in test [1]; at recombinant human renin) were 2.3e-07 M and above 30000 nM, respectively. Consider `CC[C@H](C)[C@H](NC(=O)C[C@H](O)[C@H](Cc1ccccc1)NC(=O)[C@@H](NC(=O)Cc1ccc(OC)cc1)C(C)C)C(=O)N[C@H](C(=O)O)C(C)C` [Compound 15, (S)-2-[(2S,3S)-2-((3S,4S)-3-hydroxy-4-{(S)-2-[2-(4-methoxyphenyl)-acetylamino]-3-methylbutyrylamino}-5-phenylpentanoylamino)-3-methylpentanoylamino]-3-methylbutyric acid], for which the IC50 in test [1] is 3.9e-08 M; at recombinant human renin it was above 30000 nM. Taken in the same sequence, the figures for `CC[C@H](C)[C@H](NC(=O)C[C@H](O)[C@H](Cc1ccccc1)NC(=O)[C@@H](NC(=O)Cc1ccccc1OC)C(C)C)C(=O)N[C@H](C(=O)O)C(C)C` [Compound 28, (S)-2-[(2S,3S)-2-((3S,4S)-3-hydroxy-4-{(S)-2-[2-(2-methoxyphenyl)-acetylamino]-3-methylbutyrylamino}-5-phenylpentanoylamino)-3-methylpentanoylamino]-3-methylbutyric acid] were 1.6e-07 M and above 30000 nM. On the same counts, the results for `CC[C@H](C)[C@H](NC(=O)C[C@H](O)[C@H](Cc1ccccc1)NC(=O)[C@@H](NC(=O)CCc1ccccc1)C(C)C)C(=O)N[C@H](C(=O)OCc1ccccc1)C(C)C` [Compound 1, benzly (S)-2-((2S,3S)-2-{(3S,4S)-3-hydroxy-4-[(S)-3-methyl-2-(3-phenylpropionylamino)butyrylamino]-5-phenylpentanoylamino}-3-methylpentanoylamino)-3-methylbutyrate] are 7.9e-08 M and above 30000 nM. Take `CC[C@H](C)[C@H](NC(=O)C[C@H](O)[C@H](Cc1ccccc1)NC(=O)[C@@H](NC(=O)[C@H](CC(C)C)NC(=O)Cc1ccccc1)C(C)C)C(=O)N[C@H](C(=O)OCc1ccccc1)C(C)C` [Compound 44, benzyl (S)-2-((2S,3S)-2-{(3S,4S)-3-hydroxy-4-[(S)-3-methyl-2-((S)-4-methyl-2-phenylacetylaminopentanoylamino)butyrylamino]-5-phenylpentanoylamino}-3-methylpentanoylamino)-3-methylbutyrate] (PhAc-LV[Ahppa(3S,4S)]IV-OBn): in test [1], the IC50 worked out at 2.1e-09 M.

As to `CC[C@H](C)[C@H](NC(=O)C[C@H](O)[C@H](Cc1ccccc1)NC(=O)[C@@H](NC(=O)C(c1ccccc1)c1ccccc1)C(C)C)C(=O)N[C@H](C(=O)O)C(C)C` [Compound 33, (S)-2-{(2S,3S)-2-[(3S,4S)-4-((S)-2-diphenylacetylamino-3-methyl-butyrylamino)-3-hydroxy-5-phenylpentanoylamino]-3-methylpentanoylamino}-3-methylbutyric acid], the IC50 in test [1] was 1.6e-08 M. On the same count and under the same terms, next, `CC[C@H](C)[C@H](NC(=O)C[C@H](O)[C@H](Cc1ccccc1)NC(=O)[C@@H](NC(=O)Cc1cccc(OC)c1)C(C)C)C(=O)N[C@H](C(=O)OCc1ccccc1)C(C)C` [Compound 13, benzly (S)-2-[(2S,3S)-2-((3S,4S)-3-hydroxy-4-{(S)-2-[2-(3-methoxy-phenyl)acetylamino]-3-methylbutyrylamino}-5-phenylpentanoylamino)-3-methylpentanoylamino]-3-methylbutyrate]: 2.5e-08 M; `CCCOc1cccc(CC(=O)N[C@H](C(=O)N[C@@H](Cc2ccccc2)[C@@H](O)CC(=O)N[C@H](C(=O)N[C@H](C(=O)O)C(C)C)[C@@H](C)CC)[C@@H](C)CC)c1` [Compound 40, (S)-2-[(2S,3S)-2-((3S,4S)-3-hydroxy-4-{(2S,3S)-3-methyl-2-[2-(3-propoxyphenyl)acetylamino]pentanoylamino}-5-phenylpentanoylamino)-3-methylpentanoylamino]-3-methylbutyric acid]: 1.7e-08 M. Same read-out and setting: as for `CC[C@H](C)[C@H](NC(=O)C[C@H](O)[C@H](Cc1ccccc1)NC(=O)[C@@H](NC(=O)Cc1cc(OC(F)(F)F)ccc1OC)C(C)C)C(=O)N[C@H](C(=O)OCc1ccccc1)C(C)C` [Compound 18, benzly (S)-2-[(2S,3S)-2-((3S,4S)-3-hydroxy-4-{(S)-2-[2-(2-methoxy-5-trifluoromethoxyphenyl)acetylamino]-3-methylbutyrylamino}-5-phenylpentanoylamino)-3-methylpentanoylamino]-3-methylbutyrate], the figure is 3.4e-08 M.
